From patent publication US20260293894A1, “FUSED PYRROLIDINE-2-ONE HERBICIDAL COMPOUNDS” (SYNGENTA CROP PROTECTION AG, priority 2023, published 2026)

Assays:
Type in all cases: in vivo
Details in all cases: 1000 g/Ha, evaluated after 13 days, glasshouse
[1] = tested on: Echinochloa crus-galli (ECHCG); experiment: Post-emergence herbicidal activity, percentage damage to ECHCG
Experimental: (§1) Seeds of a variety of test species are sown in standard soil in pots Amaranthus palmeri (AMAPA), Amaranthus retroflexus (AMARE), Setaria faberi (SETFA), Echinochloa crus-galli (ECHCG), Ipomoea hederacea (IPOHE),). After cultivation for one day (pre-emergence) or after 8 days cultivation (post-emergence) under controlled conditions in a glasshouse (at 24/160C, day/night; 14 hours light; 65% humidity), the plants are sprayed with an aqueous spray solution derived from the dissolution of the technical active ingredient in a small amount of acetone and a special solvent and emulsifier mixture referred to as IF50 (11.12% Emulsogen EL360 TM+44.44% N-methylpyrrolidone+44.44% Dowanol DPM glycol ether, which was then diluted to required concentration using 0.2% Genapol XO80 (CAS No. 9043-30-5) in water as the diluent. Compounds are applied at the rates stated. The test plants are then grown in a glasshouse under controlled conditions in a glasshouse (at 24/160C, day/night; 14 hours light; 65% humidity) and watered twice daily. After 13 days for pre and post-emergence, the test is evaluated for the percentage damage caused to the plant. The biological activities are shown in the following table on a five-point scale (5=81-100%; 4=61-80%; 3=41-60%; 2=21-40%; 1=0-20%; NT=not tested).

[2] = tested on: Amaranthus retroflexus (AMARE); experiment: Pre-emergence herbicidal activity, percentage damage to AMARE
Experimental: as §1

[3] = tested on: Setaria faberi (SETFA); experiment: Post-emergence herbicidal activity, percentage damage to SETFA
Experimental: as §1

[4] = tested on: Amaranthus retroflexus (AMARE); experiment: Post-emergence herbicidal activity, percentage damage to AMARE
Experimental: as §1

[5] = tested on: Ipomoea hederacea (IPOHE); experiment: Pre-emergence herbicidal activity, percentage damage to IPOHE
Experimental: as §1

[6] = tested on: Ipomoea hederacea (IPOHE); experiment: Post-emergence herbicidal activity, percentage damage to IPOHE
Experimental: as §1

[7] = tested on: Amaranthus palmeri (AMAPA); experiment: Pre-emergence herbicidal activity, percentage damage to AMAPA
Experimental: as §1

[8] = tested on: Echinochloa crus-galli (ECHCG); experiment: Pre-emergence herbicidal activity, percentage damage to ECHCG
Experimental: as §1

[9] = tested on: Amaranthus palmeri (AMAPA); experiment: Post-emergence herbicidal activity, percentage damage to AMAPA
Experimental: as §1

[10] = tested on: Setaria faberi (SETFA); experiment: Pre-emergence herbicidal activity, percentage damage to SETFA
Experimental: as §1

SMILES	percentage damage caused to the plant (ECHCG) [1]	percentage damage caused to the plant (AMARE) [2]	percentage damage caused to the plant (SETFA) [3]	percentage damage caused to the plant (AMARE) [4]	percentage damage caused to the plant (IPOHE) [5]	percentage damage caused to the plant (IPOHE) [6]	percentage damage caused to the plant (AMAPA) [7]	percentage damage caused to the plant (ECHCG) [8]	percentage damage caused to the plant (AMAPA) [9]	percentage damage caused to the plant (SETFA) [10]
O=C(O)C[C@@H]1[C@@H]2C[C@@H]2C(=O)N1Cc1ccc(Cl)c(F)c1 (relative stereo) [A.79, 2-[(1R*,2R*,5S*)-3-[(3-fluoro-4-chloro)methyl]-4-oxo-3-azabicyclo[3.1.0]hexan-2-yl]acetic acid]	1 (0-20%)	1 (0-20%)	4 (61-80%)	1 (0-20%)	1 (0-20%)	1 (0-20%)	1 (0-20%)	2 (21-40%)	1 (0-20%)	4 (61-80%)
O=C(O)C[C@@H]1[C@@H]2C[C@@H]2C(=O)N1Cc1ccc(F)c(Cl)c1 (relative stereo) [A.82, 2-[(1R*,2R*,5S*)-3-[(3-chloro-4-fluoro)methyl]-4-oxo-3-azabicyclo[3.1.0]hexan-2-yl]acetic acid]	1 (0-20%)	2 (21-40%)	4 (61-80%)	2 (21-40%)	1 (0-20%)	2 (21-40%)	2 (21-40%)	1 (0-20%)	1 (0-20%)	4 (61-80%)
O=C(O)C[C@H]1[C@@H]2C[C@@H]2C(=O)N1Cc1cccc(F)c1F (relative stereo) [Compound A.04, 2-[(1R*,2S*,5S*)-3-[(2,3-difluorophenyl)methyl]-4-oxo-3-azabicyclo[3.1.0]hexan-2-yl]acetic acid]	3 (41-60%)	2 (21-40%)	4 (61-80%)	1 (0-20%)	1 (0-20%)	1 (0-20%)	2 (21-40%)	2 (21-40%)	1 (0-20%)	3 (41-60%)
COC(=O)C[C@@H]1[C@@H]2C[C@@H]2C(=O)N1Cc1cccc(F)c1F (relative stereo) [Compound A.07, methyl 2-[(1R*,2R*,5S*)-3-[(2,3-difluorophenyl)methyl]-4-oxo-3-azabicyclo[3.1.0]hexan-2-yl]acetate]	3 (41-60%)	4 (61-80%)	4 (61-80%)	3 (41-60%)	2 (21-40%)	3 (41-60%)	3 (41-60%)	4 (61-80%)	3 (41-60%)	5 (81-100%)
O=C(O)C[C@@H]1[C@@H]2C[C@@H]2C(=O)N1Cc1ccc(F)c(F)c1F (relative stereo) [Compound A.13, 2-[(1R*,2R*,5S*)-3-[(2,3,4-trifluorophenyl)methyl]-4-oxo-3-azabicyclo[3.1.0]hexan-2-yl]acetic acid]	3 (41-60%)	4 (61-80%)	5 (81-100%)	3 (41-60%)	4 (61-80%)	2 (21-40%)	3 (41-60%)	3 (41-60%)	2 (21-40%)	5 (81-100%)
O=C(O)C[C@H]1[C@@H]2CCCC[C@@H]2C(=O)N1Cc1cccc(F)c1F (relative stereo) [E.04, 2-[(1S*,3aS*,7aR*)-2-[(2,3-difluorophenyl)methyl]-3-oxo-3a,4,5,6,7,7a-hexahydro-1H-isoindol-1-yl]acetic acid]	1 (0-20%)	4 (61-80%)	1 (0-20%)	1 (0-20%)	1 (0-20%)	1 (0-20%)	4 (61-80%)	1 (0-20%)	1 (0-20%)	3 (41-60%)
